These results are taken from US20250002597A1, “METHOD FOR OPTIMIZING DRUG SELECTION” (priority 2023, published 2025).

For this data set, the system named is T-lymphocytes. Nature of the data set: Lymphocyte toxicity assay (LTA). It counts as cell-based, human. As to conditions: for Viability %: post-mastectomy. An excerpt:
The present invention is particularly effective in determining the efficacy of the drug alone by measuring the lymphocyte toxicity assay and then combining the prescribed drug with various anabolic steroidal compounds.
Exemplifying the present invention is Table 2 below which sets forth a lymphocyte toxicity assay for a post-mastectomy treatment for reducing pain by measuring the efficacy of combining a known drug, Inflectra, with a steroidal compound which is an anti-tumor necrosis alpha inhibitor as the base.

[1] abbreviates: single therapeutic, patient blood cells, untreated cell control = 100%.

The molecule `C[C@]12CC[C@H]3[C@@H](CCC4=CC(=O)CC[C@@H]43)[C@@H]1CC[C@@H]2O` [Nandrolone] yielded a Viability % under setting [1] of 158%.

With `C[C@]12Cc3c[nH]nc3C[C@@H]1CC[C@@H]1[C@@H]2CC[C@@]2(C)[C@H]1CC[C@]2(C)O` [Stanozolol], under “patient blood cells exposed to the therapeutics”, the “Toxicity to the cells (interpretation in words)” value was “The only medication that was toxic to the cell was Stanozolol. However, the combination of Stanozolol”. The same molecule returned a Toxicity under setting [1] of 14%.

`C[C@]12COC(=O)C[C@@H]1CC[C@@H]1[C@@H]2CC[C@@]2(C)[C@H]1CC[C@]2(C)O` [Oxandrolone] displayed a Viability % under setting [1] of 117%.

“INFLECTRA: known drug; anti-tumor necrosis alpha inhibitor” showed a Viability % under setting [1] of 160%.

For `C[C@]12CC[C@H]3[C@@H](CCC4=CC(=O)CC[C@@]43C)[C@@H]1CC[C@@H]2O` [Testosterone], the Viability % under setting [1] is 150%.
